Results published in patent US20230117034A1, “PYRAZOLOTRIAZINES” (Bayer Aktiengesellschaft, priority 2019, published 2023).

Tests used:
[1] = molecular target: T1, CYCLIN K (nuclear staining in CAL-120 cells) (Homo sapiens, UniProt O75909); experiment: CYCLIN K nuclear protein level: immunofluorescence high content analysis (CAL-120); type: cell-based; conditions: 24 h, 50% reduction of nuclear CCNK staining intensity, median, read-out: CYCLIN K degradation IF, DC50-[mol/l] (median)
T1 construct: endogenous in cells; host or cells: CAL-120 human breast cancer cells (DSMZ ACC 459)
Method in brief: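 Readout is automated confocal image analysis of nuclear cyclin K immunofluorescence (Hoechst nuclei) after PFA fixation. Cells were CAL-120, exposed to compound dose-response 24 h at 37 °C; values are DC50 for halving nuclear CCNK signal relative to DMSO and control wells.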

[2] = system: BRCA1 mRNA expression in MDA-MB-231 cells; experiment: qRT-PCR assay: BRCA1 mRNA expression in MDA-MB-231; type: cell-based, human; conditions: Homo sapiens, MDA-MB-231, Inhibition of BRCA1 mRNA expression in MDA-MB-231 cells; median; read-out: RTqPCR-MDA-MB-231, IC50, BRCA1 (median)
Method in brief: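 First, cells are plated at 200,000 per well and allowed 24 h. Second, test substances are applied continuously for a further 24 h. Finally, RNA is isolated, 600 ng is converted to cDNA, and qPCR quantifies the transcript relative to GAPDH.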

[3] = system: MDA-MB-231, human breast cancer cells; experiment: Proliferation assay MDA-MB-231 (crystal violet, 4 days); type: cell-based; conditions: Homo sapiens, MDA-MB-231, 96 h, MDA-MB-231 cells, median, read-out: Prolif-MDA MB-231, IC50-[mol/l] (median)
Method in brief: (§1)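 Growth was measured by crystal violet staining after cells had been treated with compounds (0.01-10 µmol/L, 0.1% DMSO) for 4 days, beginning 24 h after seeding. Values were normalized to a zero-point plate and to untreated controls, and IC50 values were derived by a four-parameter fit.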

[4] = system: CAL-120, human breast adenocarcinoma cells; experiment: Proliferation assay CAL-120 (crystal violet, 4 days); type: cell-based; conditions: Homo sapiens, CAL-120, 96 h, CAL-120 cells, median, read-out: Prolif-CAL-120, IC50-[mol/l] (median)
Method in brief: as §1

T1 sequence (O75909 whole entry): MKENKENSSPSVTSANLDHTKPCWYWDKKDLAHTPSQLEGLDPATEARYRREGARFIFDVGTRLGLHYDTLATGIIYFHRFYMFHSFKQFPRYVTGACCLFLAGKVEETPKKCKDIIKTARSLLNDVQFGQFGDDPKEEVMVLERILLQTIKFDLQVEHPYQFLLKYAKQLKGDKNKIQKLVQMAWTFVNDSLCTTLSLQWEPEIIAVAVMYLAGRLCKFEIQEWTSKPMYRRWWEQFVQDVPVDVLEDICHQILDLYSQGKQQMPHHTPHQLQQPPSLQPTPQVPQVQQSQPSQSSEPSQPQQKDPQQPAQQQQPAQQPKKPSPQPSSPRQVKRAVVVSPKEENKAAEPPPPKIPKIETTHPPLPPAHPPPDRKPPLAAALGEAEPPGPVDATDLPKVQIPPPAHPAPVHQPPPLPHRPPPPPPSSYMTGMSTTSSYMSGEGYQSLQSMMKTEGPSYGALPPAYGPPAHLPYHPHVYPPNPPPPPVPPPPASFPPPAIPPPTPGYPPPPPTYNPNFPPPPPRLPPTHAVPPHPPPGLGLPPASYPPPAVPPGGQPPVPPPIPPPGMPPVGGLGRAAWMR
T1 sequence (Q9NYV4 whole entry partner): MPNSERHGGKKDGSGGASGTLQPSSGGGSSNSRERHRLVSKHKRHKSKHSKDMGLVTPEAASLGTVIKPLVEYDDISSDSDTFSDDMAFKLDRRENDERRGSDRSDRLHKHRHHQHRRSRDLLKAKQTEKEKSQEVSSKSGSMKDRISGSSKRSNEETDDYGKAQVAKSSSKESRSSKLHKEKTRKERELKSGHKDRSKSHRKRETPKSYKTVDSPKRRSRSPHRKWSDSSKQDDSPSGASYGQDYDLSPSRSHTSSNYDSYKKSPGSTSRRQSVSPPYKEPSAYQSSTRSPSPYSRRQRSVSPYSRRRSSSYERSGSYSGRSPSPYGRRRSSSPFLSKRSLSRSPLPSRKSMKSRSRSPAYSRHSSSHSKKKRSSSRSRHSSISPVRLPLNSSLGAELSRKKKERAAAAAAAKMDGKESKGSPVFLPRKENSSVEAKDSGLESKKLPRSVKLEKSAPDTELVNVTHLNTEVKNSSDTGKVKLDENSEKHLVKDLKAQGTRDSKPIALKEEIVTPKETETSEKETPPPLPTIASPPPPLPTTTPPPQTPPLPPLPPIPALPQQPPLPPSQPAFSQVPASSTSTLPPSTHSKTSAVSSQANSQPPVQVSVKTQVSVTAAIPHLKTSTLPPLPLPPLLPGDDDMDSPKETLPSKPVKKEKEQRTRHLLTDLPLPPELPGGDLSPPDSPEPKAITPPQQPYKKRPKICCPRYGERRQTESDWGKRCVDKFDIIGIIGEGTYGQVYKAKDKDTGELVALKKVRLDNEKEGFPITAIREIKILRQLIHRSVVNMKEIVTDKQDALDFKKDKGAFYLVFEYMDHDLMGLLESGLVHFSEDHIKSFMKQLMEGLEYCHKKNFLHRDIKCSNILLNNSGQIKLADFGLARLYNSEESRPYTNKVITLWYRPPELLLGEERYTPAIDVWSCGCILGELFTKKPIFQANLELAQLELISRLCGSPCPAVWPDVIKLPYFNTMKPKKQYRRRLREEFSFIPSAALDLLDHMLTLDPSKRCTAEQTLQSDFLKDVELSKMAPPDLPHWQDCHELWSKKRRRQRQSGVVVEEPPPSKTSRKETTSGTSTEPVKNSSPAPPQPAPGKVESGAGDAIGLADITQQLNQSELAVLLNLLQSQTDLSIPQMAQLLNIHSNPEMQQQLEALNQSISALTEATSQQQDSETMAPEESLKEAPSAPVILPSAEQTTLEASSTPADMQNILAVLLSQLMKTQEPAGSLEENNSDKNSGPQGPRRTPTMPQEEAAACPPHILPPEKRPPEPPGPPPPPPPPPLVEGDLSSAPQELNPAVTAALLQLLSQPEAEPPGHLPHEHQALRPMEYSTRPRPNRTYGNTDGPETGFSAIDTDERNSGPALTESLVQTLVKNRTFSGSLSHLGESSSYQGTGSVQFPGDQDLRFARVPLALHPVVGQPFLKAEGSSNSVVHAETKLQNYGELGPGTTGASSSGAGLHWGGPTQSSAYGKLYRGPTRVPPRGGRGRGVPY

SMILES	DC50 [1] [nM]	IC50 [2] [nM]	IC50 [3] [nM]	IC50 [4] [nM]
CC1CN(c2nc(NCc3nc4ccccc4[nH]3)n3ncc(C(C)C)c3n2)CCO1 (racemic) [Example 11, (rac)-N-[(1H-benzimidazol-2-yl)methyl]-2-[2-methylmorpholin-4-yl]-8-(propan-2-yl)pyrazolo[1,5-a][1,3,5]triazin-4-amine]	14.5	31.8	–	–
CC(C)c1cnn2c(NCc3nc4ccccc4[nH]3)nc(Nc3ccncc3)nc12 [Example 14, N^4-[(1H-benzimidazol-2-yl)methyl]-8-(propan-2-yl)-N^2-(pyridin-4-yl)pyrazolo[1,5-a][1,3,5]triazine-2,4-diamine]	–	< 30	47	–
O=C1CN(c2nc(NCc3nc4ccccc4[nH]3)n3ncc(Br)c3n2)CCN1 [Example 167, 4-(4-{[(1H-benzimidazol-2-yl)methyl]amino}-8-bromopyrazolo[1,5-a][1,3,5]triazin-2-yl)piperazin-2-one]	–	429	707	70.4
COc1cccc2[nH]c(CNc3nc(N4C[C@H]5C[C@@H]4CO5)nc4c(C5CC5)cnn34)nc12 [Example 198, 8-cyclopropyl-N-[(4-methoxy-1H-benzimidazol-2-yl)methyl]-2-[(1R,4R)-2-oxa-5-azabicyclo[2.2.1]heptan-5-yl]pyrazolo[1,5-a][1,3,5]triazin-4-amine]	–	60.3	98	31.1
OC1(C(F)(F)F)CCN(c2nc(NCc3nc4ccccc4[nH]3)n3ncc(Br)c3n2)C1 (stereo not shown) [Example 200, 1-[4-(1H-benzimidazol-2-ylmethylamino)-8-bromo-pyrazolo[1,5-a][1,3,5]triazin-2-yl]-3-(trifluoromethyl)pyrrolidin-3-ol]	–	66.2	152	95.8
CN1CC2CCC(C1)N2c1nc(NCc2nc3ccccc3[nH]2)n2ncc(Br)c2n1 [Example 226, N-(1H-benzimidazol-2-ylmethyl)-8-bromo-2-(3-methyl-3,8-diazabicyclo[3.2.1]octan-8-yl)pyrazolo[1,5-a][1,3,5]triazin-4-amine]	3.89	–	162	116
OCCNc1nc(NCc2nc3ccccc3[nH]2)n2ncc(Br)c2n1 [Example 228, 2-[(4-{[(1H-benzimidazol-2-yl)methyl]amino}-8-bromopyrazolo[1,5-a][1,3,5]triazin-2-yl)amino]ethan-1-ol]	–	–	434	273
COCCNc1nc(NCc2nc3ccccc3[nH]2)n2ncc(Br)c2n1 [Example 230, N4-(1H-benzimidazol-2-ylmethyl)-8-bromo-N2-(2-methoxyethyl)pyrazolo[1,5-a][1,3,5]triazine-2,4-diamine]	–	–	261	313
CCN(C)c1nc(NCc2nc3ccccc3[nH]2)n2ncc(Br)c2n1 [Example 233, N4-(1H-benzimidazol-2-ylmethyl)-8-bromo-N2-ethyl-N2-methyl-pyrazolo[1,5-a][1,3,5]triazine-2,4-diamine]	–	–	145	158
Brc1cnn2c(NCc3nc4ccccc4[nH]3)nc(NCCN3CCCC3)nc12 [Example 235, N4-(1H-benzimidazol-2-ylmethyl)-8-bromo-N2-(2-pyrrolidin-1-ylethyl)pyrazolo[1,5-a][1,3,5]triazine-2,4-diamine]	–	–	315	274
CN(CCN1CCCC1)c1nc(NCc2nc3ccccc3[nH]2)n2ncc(Br)c2n1 [Example 239, N4-(1H-benzimidazol-2-ylmethyl)-8-bromo-N2-methyl-N2-(2-pyrrolidin-1-ylethyl)pyrazolo[1,5-a][1,3,5]triazine-2,4-diamine]	–	–	561	436
CN1CCN(c2nc(NCc3nc4ccccc4[nH]3)n3ncc(-c4ccncc4)c3n2)CC1 [Example 242, N-[(1H-benzimidazol-2-yl)methyl]-2-(4-methylpiperazin-1-yl)-8-(pyridin-4-yl)pyrazolo[1,5-a][1,3,5]triazin-4-amine]	–	514	253	857
Cc1cc(-c2cnn3c(NCc4nc5ccccc5[nH]4)nc(N4CCN(C)CC4)nc23)ccn1 [Example 243, N-[(1H-benzimidazol-2-yl)methyl]-2-(4-methylpiperazin-1-yl)-8-(2-methylpyridin-4-yl)pyrazolo[1,5-a][1,3,5]triazin-4-amine]	–	–	–	3670

Second part, the compound after the results:

DC50 [1] [nM]	IC50 [2] [nM]	IC50 [3] [nM]	IC50 [4] [nM]	SMILES
–	5.41	81.1	38.2	OC1CCCN(c2nc(NCc3nc4ccccc4[nH]3)n3ncc(Br)c3n2)C1 (racemic) [Example 16, (rac)-1-(4-{[(1H-benzimidazol-2-yl)methyl]amino}-8-bromopyrazolo[1,5-a][1,3,5]triazin-2-yl)piperidin-3-ol]
0.973	2.46	–	3.25	C[C@@H]1CN(c2nc(NCc3nc4ccccc4[nH]3)n3ncc(Br)c3n2)CCN1 [Example 168, N-[(1H-benzimidazol-2-yl)methyl]-8-bromo-2-[(3R)-3-methylpiperazin-1-yl]pyrazolo[1,5-a][1,3,5]triazin-4-amine]
–	–	332	68.8	CN(C)[C@H]1CCN(c2nc(NCc3nc4ccccc4[nH]3)n3ncc(Br)c3n2)C1 [Example 177, N-[(1H-benzimidazol-2-yl)methyl]-8-bromo-2-[(3S)-3-(dimethylamino)pyrrolidin-1-yl]pyrazolo[1,5-a][1,3,5]triazin-4-amine]
–	–	501	96.8	CN(C)[C@@H]1CCN(c2nc(NCc3nc4ccccc4[nH]3)n3ncc(Br)c3n2)C1 [Example 178, N-[(1H-benzimidazol-2-yl)methyl]-8-bromo-2-[(3R)-3-(dimethylamino)pyrrolidin-1-yl]pyrazolo[1,5-a][1,3,5]triazin-4-amine]
–	145	290	126	CN(C)C1CCN(c2nc(NCc3nc4ccccc4[nH]3)n3ncc(Br)c3n2)CC1 [Example 201, N-[(1H-benzimidazol-2-yl)methyl]-8-bromo-2-[4-(dimethylamino)piperidin-1-yl]pyrazolo[1,5-a][1,3,5]triazin-4-amine]
3.05	–	182	107	CO[C@H]1CCN(c2nc(NCc3nc4ccccc4[nH]3)n3ncc(Br)c3n2)C1 [Example 222, N-[(1H-benzimidazol-2-yl)methyl]-8-bromo-2-[(3S)-3-methoxypyrrolidin-1-yl]pyrazolo[1,5-a][1,3,5]triazin-4-amine]
–	86.5	349	270	CO[C@@H]1CCN(c2nc(NCc3nc4ccccc4[nH]3)n3ncc(Br)c3n2)C1 [Example 223, N-[(1H-benzimidazol-2-yl)methyl]-8-bromo-2-[(3R)-3-methoxypyrrolidin-1-yl]pyrazolo[1,5-a][1,3,5]triazin-4-amine]
–	21.2	128	57	O[C@H]1CCN(c2nc(NCc3nc4ccccc4[nH]3)n3ncc(Br)c3n2)C1 [Example 224, (3S)-1-(4-{[(1H-benzimidazol-2-yl)methyl]amino}-8-bromopyrazolo[1,5-a][1,3,5]triazin-2-yl)pyrrolidin-3-ol]
–	34.8	123	62.7	CC1(O)CCN(c2nc(NCc3nc4ccccc4[nH]3)n3ncc(Br)c3n2)C1 (stereo not shown) [Example 225, 1-[4-(1H-benzimidazol-2-ylmethylamino)-8-bromo-pyrazolo[1,5-a][1,3,5]triazin-2-yl]-3-methyl-pyrrolidin-3-ol]
